Here are results for eight molecules from patent US12599585B2, “Use of [(1R)-1-(2-chlorophenyl)-2-(tetrazol-2-yl)ethyl] carbamate in combination therapy” (priority 2018, dated 2026).

Data set [1] in a line: population pharmacokinetic (PopPK) modeling and simulation of the cenobamate effect on concomitant AED concentrations in subjects with partial onset seizures. It is filed as in vivo, human. Conditions: cenobamate dose 100-400 mg/day. The method, then:
This study was carried out to make an assessment of the extent to which the adjunctive treatment with cenobamate may affect the recommended dosing of other AEDs. Population pharmacokinetics (PopPK) models describing how cenobamate exposure affects that of other commonly used AEDs (i.e., carbamazepine, lamotrigine, levetiracetam, oxcarbazepine, phenytoin and valproic acid) when given as adjunct therapy.
Therapeutically effective amount for AEDs are different depending on the condition of subjects participated in the study. For carbamazepine, therapeutically effective amount was about 800 mg/day to about 1,200 mg/day for adults and children over 12 years of age. For lamotrigine, therapeutically effective amount was about 100 mg/day to about 500 mg/day, preferably about 100 mg/day to 200 mg/day, for adults and children over 12 years of age. For levetiracetam, therapeutically effective amount was about 3,000 mg/day for adults and children over 12 years of age. For phenytoin, therapeutically effective amount was about 300 mg/day to about 600 mg/day for adults. For valproic acid, therapeutically effective amount was about 60 mg/kg/day for adults.
PopPk datasets were constructed from clinical databases for Cenobamate Study 1, Cenobamate Study 2 and Cenobamate Study 3. The dosing, exposure, covariate and AED concentration data were merged by subject, date, and time; formatted for PopPK analysis and saved in ASCII format using R software (Version 3.2.2, Comprehensive R Network, cran.r-project.org). All data programs were documented and archived in a locked on-line repository in order to maintain an audit trail. A quality control (QC) check of the data management procedure was conducted according to qPharmetra standard operating procedures (SOPs).
Results from Cenobamate Study 1, Cenobamate Study 2 and Cenobamate Study 3 were included in the analyses. Each study is described in more detail in the subsequent sections.
This is a multicenter, double-blind, randomized, adjunctive placebo-controlled trial with an open-label extension phase to evaluate the efficacy and safety of cenobamate in subjects with treatment resistant partial onset seizures. Subjects with partial onset seizures not fully controlled despite their treatment with 1 to 3 concomitant AEDs were included in this study. The study included an 8 week baseline period to assess seizure frequency. Only subjects who experienced at least 3 seizures/month during the baseline period with no 21-day seizure-free period were randomized in a 1:1 ratio to add-on placebo or cenobamate administered in an oral formulation once daily in the morning. Subjects then entered a 12-week double-blind treatment period, consisting of a 6-week titration phase followed by a 6-week maintenance phase. In maintenance phase, the dose was 200 mg/day. Blood samples were drawn at the baseline, predose at the start of the titration phase, and on days 15, 29, 43, 57 and 85 after the first dose during the double-blinded treatment period. These samples were analyzed for lamotrigine, levetiracetam, oxcarbazepine, carbamazepine, and valproic acid.
This is a multicenter, double-blind, randomized, placebo-controlled dose-response study, with an 8-week prospective baseline and an 18-week double-blind treatment period. Subjects must have had least 8 partial seizures including only simple partial seizures with motor component, complex partial seizures, or secondarily generalized seizures without a seizure-free interval of greater than 25 days any time during the 8-week baseline despite their treatment with 1 to 3 AEDs. Subjects must have had at least 3 of these partial seizures during each of the two consecutive 4-week periods in the baseline period to be randomized to 100, 200 or 400 mg/day cenobamate or placebo (1:1:1:1 ratio) administered as a tablet formulation once daily in the morning. Subjects first entered a 6-week titration followed by a 12-week maintenance phase. […]

The nature of data set [2]: open-label multiple dose PK drug-interaction studies of cenobamate co-administered with AEDs. It counts as in vivo, human. The method, then: This study was carried out to assess the effect of cenobamate on the disposition of four AEDs (divalproex sodium, phenobarbital, phenytoin and carbamazepine) and the effect of four AEDs on the disposition of cenobamate. The details are described below.
Five open-label, multiple dose, multiple period, 1 sequence, PK drug-interaction studies were conducted examining co-administration of cenobamate and each of the above-mentioned AEDs. Specifically, five studies were conducted, as follows:
This is an open-label, multiple-dose, 1 sequence, 3 period pharmacokinetic drug interaction study between cenobamate and divalproex in normal volunteer subjects. Sixteen subjects were enrolled. All subjects were scheduled to undergo 3 treatment periods as a 1 sequence design: • Period 1 (Days 1 to 5): Single oral daily administration of 1000 mg divalproex (Treatment A). • Period 2 (Days 6 to 19): Co-administration of single oral daily administration of 1000 mg divalproex and 150 mg cenobamate (Treatments A and B). • Period 3 (Days 20 to 25): Single oral daily administration of 150 mg cenobamate (Treatment B). (Number of Subjects Planned: 16 Enrolled: 16 Analyzed: 16) Study 2—Phenobarbital
This is an open-label, 1-arm, 2-treatment study. Sixteen (16) healthy, adult, non-tobacco using, male and female subjects were enrolled. Screening of subjects occurred within 28 days prior to the first dose. A total of 16 subjects were enrolled in the study, and 14 subjects completed the study. The PK dataset therefore included 16 subjects for phenobarbital alone and 14 subjects for the combination treatment. There were 16 subjects included in the safety analyses.
Treatment A subjects received 30 mg phenobarbital TID on Days 1 to 7, followed by 90 mg phenobarbital QD in the morning on Days 8 to 21. All study drugs were administered orally with approximately 240 mL of water.
Treatment B subjects received 90 mg phenobarbital QD in the morning from Days 22 to 56 co-administered with 50 mg cenobamate QD on Days 22 to 28, 100 mg cenobamate QD on Days 29 to 35, 150 mg cenobamate QD on Days 36 to 42, and 200 mg cenobamate QD on Days 43 to 56. All study drugs were administered orally with approximately 240 mL of water. The study duration was approximately 13 weeks from screening to end-of-study procedures. There was approximately 17 weeks from screening to attempted follow-up phone call. There was no washout. […]
Blood samples were obtained prior to and following dosing at selected times through 24 hours postdose on selected days (Days 14, 28, and 70). Plasma samples were analyzed for phenytoin and cenobamate concentrations using validated analytical methods. Appropriate PK parameters were calculated for each treatment using non-compartmental methods. […]

[3] abbreviates: combination therapy with phenytoin vs cenobamate alone (FIG. 3).
The mark [4] stands for this setting: combination therapy with cenobamate vs AED alone (FIG. 2).

On to `CCCC(CCC)C(=O)O` [Valproic acid, valproic acid], for which the “Effect on AED Concentration (AUC): Reduction by” value (“Effect … Reduction by” for short) in data set [1] is “Reduction by 5-19%”.

Regarding `CC[C@@H](C(N)=O)N1CCCC1=O` [Levetiracetam, levetiracetam], in data set [1], the “Effect … Reduction by” value is “Reduction by 4-13%”.

With `NC(=O)N1c2ccccc2C=Cc2ccccc21` [Carbamazepine, carbamazepine], the “Effect … Reduction by” value in data set [1] was “Reduction by 11-34%”.

Consider `O=C1NC(=O)C(c2ccccc2)(c2ccccc2)N1` [Phenytoin, phenytoin], for which the “Effect on AED Concentration (AUC): Increase by” value in data set [1] is recorded as “Increase by 10-60%”.

Regarding `NC(=O)N1c2ccccc2CC(=O)c2ccccc21` [Oxcarbazepine, oxcarbazepine], the “Effect on AED Concentration (AUC): Increase by” value in data set [1] was “Increased by 10%”.

On to `Nc1nnc(-c2cccc(Cl)c2Cl)c(N)n1` [Lamotrigine, lamotrigine], for which the “Effect … Reduction by” value in data set [1] is “Reduction by 21-52%”.

`NC(=O)O[C@@H](Cn1ncnn1)c1ccccc1Cl` [cenobamate, [(1R)-1-(2-chlorophenyl)-2-(tetrazol-2-yl)ethyl] carbamate]: in data set [2] (setting [3]), the “plasma AUC for cenobamate” value is given as “decreased” and the “plasma Cmax for cenobamate” value is “decreased”.

Turning to `CCC1(c2ccccc2)C(=O)NC(=O)NC1=O` [phenobarbital], in data set [2] (setting [4]), the “plasma AUC of the AED” value was “increased” and the “plasma Cmax of the AED” value is given as “increased”.
